Results from patent publication US10428080B2, “TBK/IKK inhibitor compounds and uses thereof” (Merck Patent GmbH, priority 2015, dated 2019).
Structures can show the parent of a compound that is named as a salt.

Legend:
IKKε = molecular target: T1, IKKε (Homo sapiens, UniProt Q14164); experiment: IKKe Biochemical Assay; details: read-out: IKKε IC50
T1 sequence (Q14164 1-716): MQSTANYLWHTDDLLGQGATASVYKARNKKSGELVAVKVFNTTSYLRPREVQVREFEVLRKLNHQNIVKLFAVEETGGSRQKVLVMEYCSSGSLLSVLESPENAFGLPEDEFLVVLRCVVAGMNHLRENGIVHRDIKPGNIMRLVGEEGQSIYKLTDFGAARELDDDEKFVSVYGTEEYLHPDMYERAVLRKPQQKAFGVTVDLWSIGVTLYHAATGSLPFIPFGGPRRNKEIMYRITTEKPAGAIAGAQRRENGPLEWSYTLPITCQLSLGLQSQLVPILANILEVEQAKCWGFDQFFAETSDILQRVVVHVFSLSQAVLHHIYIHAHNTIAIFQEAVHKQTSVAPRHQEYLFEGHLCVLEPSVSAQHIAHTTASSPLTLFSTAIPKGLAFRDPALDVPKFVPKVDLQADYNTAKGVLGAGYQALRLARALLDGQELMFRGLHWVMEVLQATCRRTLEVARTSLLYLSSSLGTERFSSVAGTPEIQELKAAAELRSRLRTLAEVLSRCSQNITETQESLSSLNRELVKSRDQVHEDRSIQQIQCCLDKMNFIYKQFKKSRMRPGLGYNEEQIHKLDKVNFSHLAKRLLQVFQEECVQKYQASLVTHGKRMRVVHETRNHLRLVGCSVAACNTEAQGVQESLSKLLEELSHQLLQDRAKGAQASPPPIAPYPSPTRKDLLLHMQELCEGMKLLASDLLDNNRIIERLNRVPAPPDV
Summary of the method: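 Activity was measured as mobility-shift separation of phosphorylated from unphosphorylated substrate on a LabChip EZ Reader. Compound was titrated from 30 uM final in 10 points, 1:4 steps, with 1% DMSO, and enzyme plus substrate reacted 90 min at 25° C before stop buffer. Control wells held 10 uM staurosporine.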

TBK1 = molecular target: T2, TBK1 (Homo sapiens, UniProt Q9UHD2); experiment: TBK Biochemical Assay; details: read-out: TBK1 IC50
T2 sequence (Q9UHD2 1-729): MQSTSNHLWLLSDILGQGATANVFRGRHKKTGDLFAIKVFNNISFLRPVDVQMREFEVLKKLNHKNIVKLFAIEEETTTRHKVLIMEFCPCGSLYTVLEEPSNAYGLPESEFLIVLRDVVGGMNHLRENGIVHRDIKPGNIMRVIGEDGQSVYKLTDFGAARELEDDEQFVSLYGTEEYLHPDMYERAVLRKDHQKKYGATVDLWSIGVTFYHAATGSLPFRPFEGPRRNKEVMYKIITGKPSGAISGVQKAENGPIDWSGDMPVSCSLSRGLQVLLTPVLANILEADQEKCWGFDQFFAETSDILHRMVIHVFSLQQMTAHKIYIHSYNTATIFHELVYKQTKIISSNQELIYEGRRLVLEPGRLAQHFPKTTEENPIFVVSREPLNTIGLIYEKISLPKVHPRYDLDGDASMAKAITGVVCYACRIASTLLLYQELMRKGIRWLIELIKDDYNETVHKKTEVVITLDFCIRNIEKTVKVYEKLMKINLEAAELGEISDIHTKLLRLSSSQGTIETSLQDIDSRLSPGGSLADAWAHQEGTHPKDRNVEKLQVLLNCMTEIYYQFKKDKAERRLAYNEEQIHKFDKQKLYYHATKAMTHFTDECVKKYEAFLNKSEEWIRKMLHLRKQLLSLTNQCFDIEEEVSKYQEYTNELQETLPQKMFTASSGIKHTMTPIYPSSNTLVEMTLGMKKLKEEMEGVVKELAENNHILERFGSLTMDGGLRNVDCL
Summary of the method: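 Caliper LabChip mobility-shift readout of substrate and product after 90 min of TBK1 reaction at 25° C and stop-buffer addition. Compounds tested in 1:4 serial dilution over 10 points from 30 uM final at 1% DMSO; staurosporine 10 uM final defines full inhibition.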

Row | Compound | IC50 (IKKε) [nM] | IC50 (TBK1) [nM]
1 | CC1CC(Nc2ccc(-c3ccnc4cc(-c5ccc(C(=O)N(C)C)cc5)oc34)cc2C#N)CC(C)O1 (stereo not drawn) [Compound 215, 4-(7-(3-cyano-4-(2,6-dimethyl-tetrahydro-2H-pyran-4-ylamino)phenyl)furo[3,2-b]pyridin-2-yl)-N,N-dimethylbenzamide hydrochloride] | 100 to 1000 | 1000 to 5000
2 | N#Cc1cc(-c2ccnc3cc(-c4ccc(C(=O)O)cc4)oc23)ccc1Oc1cccnc1 [Compound 186, 4-{7-[3-Cyano-4-(pyridin-3-yloxy)-phenyl]-furo[3,2-b]pyridin-2-yl}-benzoic acid] | 100 to 1000 | 1000 to 5000
3 | COc1cc(C(=O)N(C)C)cc(F)c1-c1cc2nccc(-c3ccc(NC4CCOCC4)c(C#N)c3)c2o1 [Compound 255, 4-(7-(3-cyano-4-(tetrahydro-2H-pyran-4-ylamino)phenyl)furo[3,2-b]pyridin-2-yl)-3-fluoro-5-methoxy-N,N-dimethylbenzamide] | < 100 | < 100
4 | COc1cc(C(=O)N2CC3CCC2CO3)ccc1-c1cc2nccc(-c3ccc(OC4CCOCC4)c(C#N)c3)c2o1 (stereo not drawn) [Compound 4, 5-{2-[2-Methoxy-4-(2-oxa-5-aza-bicyclo[2.2.2]octane-5-carbonyl)-phenyl]-furo[3,2-b]pyridin-7-yl}-2-(tetrahydro-pyran-4-yloxy)-benzonitrile] | < 100 | < 100
5 | CN(C)C(=O)c1ccc(-c2cc3nccc(-c4ccc(OC5CCOCC5)c(C#N)c4)c3o2)c(F)c1 [Compound 238, 4-(7-(3-cyano-4-(tetrahydro-2H-pyran-4-yloxy)phenyl)furo[3,2-b]pyridin-2-yl)-3-fluoro-N,N-dimethylbenzamide] | < 100 | < 100
6 | COc1cc(C(=O)NC2CCN(C(=O)OC(C)(C)C)C2)ccc1-c1cc2nccc(-c3ccc(NC4CCOCC4)c(C#N)c3)c2o1 (stereo not drawn) [Compound 147, 3-(4-{7-[3-Cyano-4-(tetrahydro-pyran-4-ylamino)-phenyl]-furo[3,2-b]pyridin-2-yl}-3-methoxy-benzoylamino)-pyrrolidine-1-carboxylic acid tert-butyl ester] | < 100 | < 100
7 | COc1cc(C(=O)N(C)C2CCNCC2)ccc1-c1cc2nccc(-c3ccc(OC4CCOCC4)c(C#N)c3)c2o1 [Compound 41, 4-(7-[3-Cyano-4-(tetrahydro-pyran-4-yloxy)-phenyl]-furo[3,2-b]pyridin-2-yl)-3-methoxy-N-methyl-N-piperidin-4-yl-benzamide hydrochloride] | < 100 | < 100
8 | COc1cc(C(=O)N(C)C)ccc1-c1cc2nccc(-c3ccc(O[C@H]4CCCNC4)c(C#N)c3)c2o1 [Compound 142, 4-{7-[3-Cyano-4-((S)-piperidin-3-yloxy)-phenyl]-furo[3,2-b]pyridin-2-yl}-3-methoxy-N,N-dimethyl-benzamide] | < 100 | < 100
9 | COc1cc(C(=O)N2C3CCC2COC3)ccc1-c1cc2nccc(-c3ccc(OC4CCOCC4)c(C#N)c3)c2o1 [Compound 2, 5-{2-[2-Methoxy-4-(3-oxa-8-aza-bicyclo[3.2.1]octane-8-carbonyl)-phenyl]-furo[3,2-b]pyridin-7-yl}-2-(tetrahydro-pyran-4-yloxy)-benzonitrile] | < 100 | < 100

Continued, values first:

Row | IC50 (IKKε) [nM] | IC50 (TBK1) [nM] | Compound
10 | < 100 | < 100 | COc1cc(C(=O)N2CC3CN(C)CC3C2)ncc1-c1cc2nccc(-c3ccc(N4CC[C@@H](F)C4)c(C#N)c3)c2o1 (stereo partly drawn) [Compound 453, 2-[(3R)-3-fluoropyrrolidin-1-yl]-5-[2-[4-methoxy-6-([5-methyl-octahydropyrrolo[3,4-c]pyrrol-2-yl]carbonyl)pyridin-3-yl]furo[3,2-b]pyridin-7-yl]benzonitrile]
11 | < 100 | < 100 | COc1cc(C(=O)N(C)C)ccc1-c1cc2nccc(-c3ccc(OCC4CCNC4)c(C#N)c3)c2o1 (stereo not drawn) [Compound 152, 4-{7-[3-Cyano-4-(pyrrolidin-3-ylmethoxy)-phenyl]-furo[3,2-b]pyridin-2-yl}-3-methoxy-N,N-dimethyl-benzamide hydrochloride]
12 | < 100 | < 100 | COc1cc(C(=O)N2CC3CCCC3C2)ccc1-c1cc2nccc(-c3ccc(NC4CCOCC4)c(C#N)c3)c2o1 (stereo not drawn) [Compound 137, 5-{2-[4-(Hexahydro-cyclopenta[c]pyrrole-2-carbonyl)-2-methoxy-phenyl]-furo[3,2-b]pyridin-7-yl}-2-(tetrahydro-pyran-4-ylamino)-benzonitrile]
13 | < 100 | < 100 | CCCN(C)C(=O)c1ccc(-c2cc3nccc(-c4ccc(OC5CCOCC5)c(C#N)c4)c3o2)c(OC)c1 [Compound 257, 4-(7-(3-cyano-4-(tetrahydro-2H-pyran-4-yloxy)phenyl)furo[3,2-b]pyridin-2-yl)-3-methoxy-N-methyl-N-propylbenzamide hydrochloride]
14 | 100 to 1000 | 100 to 1000 | N#Cc1cc(-c2ccnc3cc(-c4ccc(C(=O)O)cc4)oc23)ccc1Oc1ccccc1F [Compound 169, 4-{7-[3-Cyano-4-(2-fluoro-phenoxy)-phenyl]-furo[3,2-b]pyridin-2-yl}-benzoic acid]
15 | < 100 | < 100 | COc1cc(C(=O)NC2CCOCC2F)ccc1-c1cc2nccc(-c3ccc(OC4CCOCC4)c(C#N)c3)c2o1 (stereo not drawn) [Compound 102, 4-{7-[3-Cyano-4-(tetrahydro-pyran-4-yloxy)-phenyl]-furo[3,2-b]pyridin-2-yl}-N-(3-fluoro-tetrahydro-pyran-4-yl)-3-methoxy-benzamide]
16 | < 100 | < 100 | COc1cc(C(=O)N2CC3CCCC3C2)ccc1-c1cc2nccc(-c3ccc(OC4CCOCC4)c(C#N)c3)c2o1 (stereo not drawn) [Compound 99, 5-{2-[4-(Hexahydro-cyclopenta[c]pyrrole-2-carbonyl)-2-methoxy-phenyl]-furo[3,2-b]pyridin-7-yl}-2-(tetrahydro-pyran-4-yloxy)-benzonitrile]
17 | < 100 | < 100 | COc1cc(C(=O)N2CCC(OC)CC2)ccc1-c1cc2nccc(-c3ccc(OC4CCOCC4)c(C#N)c3)c2o1 [Compound 12, 5-(2-[2-Methoxy-4-(4-methoxy-piperidine-1-carbonyl)-phenyl]-furo[3,2-b]pyridin-7-yl}-2-(tetrahydro-pyran-4-yloxy)-benzonitrile]
18 | 100 to 1000 | 1000 to 5000 | CN(C)C(=O)c1ccc(-c2cc3nccc(-c4ccc(OC5CCNCC5)c(C#N)c4)c3o2)cc1 [Compound 185, 4-{7-[3-Cyano-4-(piperidin-4-yloxy)-phenyl]-furo[3,2-b]pyridin-2-yl}-N,N-dimethyl-benzamide hydrochloride]
19 | > 5000 | > 5000 | CN(C)C(=O)c1ccc(-c2cc3nccc(-c4ccc(OC5CC(C)(C)NC(C)(C)C5)c(C#N)c4)c3o2)cc1 [Compound 216, 4-(7-(3-cyano-4-(2,2,6,6-tetramethylpiperidin-4-yloxy)phenyl)furo[3,2-b]pyridin-2-yl)-N,N-dimethylbenzamide]
20 | 100 to 1000 | 100 to 1000 | CN(C)C(=O)c1ccc(-c2cc3nccc(-c4ccc(Oc5cccc(F)c5)c(C#N)c4)c3o2)cc1 [Compound 176, 4-{7-[3-Cyano-4-(3-fluoro-phenoxy)-phenyl]-furo[3,2-b]pyridin-2-yl}-N,N-dimethyl-benzamide]
21 | < 100 | < 100 | COc1cc(C(=O)N(C)C)ccc1-c1cc2nccc(-c3ccc(OC4(C(F)(F)F)CCNC4)c(C#N)c3)c2o1 (stereo not drawn) [Compound 113, 4-{7-[3-Cyano-4-(3-trifluoromethyl-pyrrolidin-3-yloxy)-phenyl]-furo[3,2-b]pyridin-2-yl}-3-methoxy-N,N-dimethyl-benzamide]
